Reference: patent publication EP2960339A1, “Method and kit for the identification of glycosyl transferase substrates” (Technische Universität München, priority 2014, dated 2015)
Several values for one entry are separate records, joined by “and”; a condition that tells them apart may be missing. Identical values can stand only once. Like-named read-outs stand apart in the source and are kept apart here.

Tests used:
Format in all cases: biochemical
[1] = target: T1, VvGT14a (Vitis vinifera, UniProt F6H0R6); assay: Substrate screening, radiochemical activity assay with UDP-[14C]glucose; conditions: for conversion of putative substrate (in words): substrate screening, Figure 3; for relative specific activity: relative to conversion of geraniol (100 %), extractable radioactivity
Experimental: (§1) In the initial screening, each reaction mixture (200 µL in total) contained Tris-HCl buffer (100 mM, pH 8, 10 mM 2-mercaptoethanol), 37 pmol UDP-[^14C]glucose (0.01 µCi, Biotrend, Köln, Germany), substrate (50 µL of a 1 mg/mL stock solution) and purified protein (0.5-0.8 µg/µL). The reaction mixture was incubated at 30 °C for 18.5 hours. The assays were stopped by adding 1 µL 24% trichloroacetic acid and extracted with 500 µL water-saturated 1-butanol. The organic phase was mixed with 2 mL Pro Flow P+ cocktail (Meridian Biotechnologies Ltd., Epsom, UK) and radioactivity was determined by liquid scintillation counting (LSC, Tri-Carb 2800TR, Perkin Elmer, Waltham MA, USA). Additionally, negative controls without substrate were performed.
(§2) After determining the optimal conditions for the best substrate of each gene, the substrate screening was repeated under these conditions.
(§3) The alleles of VvGT14a-c, 15a-c and 16 were isolated from V. vinifera cultivars and cloned in the expression vector pGEX-4T-1. The recombinant proteins were expressed with an N-terminal GST-tag, affinity purified and verified by SDS-PAGE and Western Blot using GST-specific antibody. Enzyme activity studies were performed with UDP-[^14C]glucose and various putative substrates (terpenols, flavonoids and different mono-alcohols) that are known to be glycosidically bound and present in grapes (Gunata et al., 1988).

[2] = target: T2, VvGT15c (Vitis vinifera, UniProt F6GUW0); assay: as above; conditions: for conversion of putative substrate (in words): substrate screening, Figure 3
Experimental: as §1, §2, §3

[3] = target: T3, VvGT15a (Vitis vinifera, UniProt F6GUW0); assay: as above; conditions: for conversion of putative substrate (in words): substrate screening, Figure 3
Experimental: as §1, §2, §3

[4] = target: T1, VvGT14a; conditions: for Km: monoterpenols at constant UDP-glucose […], UDP-glucose at fixed geraniol 100 µM, Tris-HCl pH 8.5, 30 °C; for kcat: pH 8.5
[5] = target: T4, VvGT15b (Vitis vinifera, UniProt F6GUW0)
Experimental: (§4) The measurements were performed under the following conditions. […] The assay of VvGT15a-c was performed at 30 °C using a Tris-HCl buffer (100 mM, 10 mM 2-mercaptoethanol, pH 7.5) and 10 min (VvGT15c) or 30 min (VvGT15a-b) of incubation for the best substrates. The amount of the purified enzyme and the incubation time were adapted depending on the counting sensibility. The reaction was stopped by adding 1 µL 24% trichloroacetic acid and glucosides were extracted with 100 µL ethyl acetate. Radioactivity was determined by LSC.
(§5) The KM- and vmax-values were calculated from Lineweaver-Burk plots, Hanes-Woolf plots and non-linear fitting of the experimental data.

[6] = target: T2, VvGT15c
Experimental: as §4, §5

[7] = target: T3, VvGT15a
Experimental: as §4, §5

[8] = target: T4, VvGT15b; assay: Substrate screening, radiochemical activity assay with UDP-[14C]glucose; conditions: for conversion of putative substrate (in words): substrate screening, Figure 3
Experimental: as §1, §2, §3

[9] = target: T5, VvGT16 (Vitis vinifera, UniProt F6HTJ4); assay: as above; conditions: for relative specific activity: relative to conversion of benzyl alcohol (100 %), extractable radioactivity; for conversion of putative substrate (in words): substrate screening, Figure 3; for efficiency of transformation of R- and S-citronellol (in words): radiochemical assays, Figure 12
Experimental: as §1, §2, §3

[10] = target: T1, VvGT14a; assay: Activity based profiling using a physiologic aglycone library (radio-TLC, GC-MS); conditions: Figure 7
Experimental: For the preparation of aglycone extracts 50 g (fresh weight) grape skins or 4 g (fresh weight) inflorescences of Gewurztraminer Gm 11-18 were ground to a fine powder in liquid nitrogen. The isolation of glycosides was carried out as described above (see metabolite analysis). The methanolic fraction, which was obtained after SPE, was enzymatically hydrolysed. Therefore, the dried sample was dissolved in citric-acid buffer (0.1 M, pH 4), 50 mg AR 2000 (an enzyme preparation with glucosidase activity prepared from Aspergillus niger; DSM Food Specialties Beverage Ingredients, Delft, Netherlands) was added and incubated for 24 h with exclusion of light. The liberated aglycones were extracted by 20 mL methyl-tert-butyl ether and the organic phase was reduced to 1000µL using a gentle stream of nitrogen.
Aliquots of this aglycone extract were incubated with UDP-glucose and various VvGT-enzymes. Optimum conditions at 30 °C for 24 hours were applied. Each solution contained 100 µL purified enzyme, 100-150 µL Tris-HCl buffer (100 mM, pH7.5 or 8.5, 10 mM 2-mercaptoethanol), 37 pmol UDP-[^14C]glucose (0.01 µCi) and 50-100 µL extract (dissolved in methyl-tert-butylether). The buffer was mixed with the extract and the organic solvent was gently vaporized with nitrogen. The missing volume was adjusted with buffer before the enzyme was added. The reaction was stopped by adding 1 µL 24% trichloroacetic acid and extracted with 500 µL ethyl acetate. After termination of the reaction free aglycones, which were not converted by VvGT14 and VvGT15, were measured via SPME-(Solid Phase Microextraction)-GC-MS. These residual, free aglycones were completely removed by extraction with dichloromethane. Enzymatically formed glucosides were extracted by ethyl acetate, which was removed under nitrogen. The residue was dissolved in methanol and analyzed by LC-MS to detect the generated monoterpenol glucosides. Enzymatic hydrolysis of the glucosides was performed using AR 2000 and 2 mL citric-acid-buffer. After hydrolysis, a 100 µL aliquot was used to detect volatile aglycones via SPME-GC-MS. The remaining solution was extracted with methyl-tert-butyl ether and reduced under nitrogen to approximately 200 µL. One µL were measured by GC-MS via liquid injection.
Assays containing UDP-[^14C]glucose and aglycone libraries or substrates were performed as described above and subsequently extracted with 500 µL ethyl acetate. The organic solvent was vaporized and the pellet was re-suspended in 10 µL methanol and was applied on Silica Gel 60 F254 plates (Merck, Darmstadt, Germany). The dried plates were developed in a solvent system chloroform:acetic acid:water (50/45/5, v:v:v). Plates were dried and analyzed by digital autoradiograph (digital autoradiograph, EG&G Berthold, Wildbad, Germany).
An aglycone library of the two tissues was obtained by enzymatic hydrolysis of the glycosides followed by liquid-liquid extraction of the released alcohols and acids. […] The formed glycosides were separated by thin layer chromatography (TLC) and visualized by radiodetection whereas identification could be achieved by LC-MS and NMR analysis and, after hydrolysis, by GC-MS and LC-MS (Figure 6).

[11] = target: T5, VvGT16; assay: Kinetics (KM, kcat) with UDP-[14C]glucose, liquid scintillation counting; conditions: monoterpenes at constant UDP-glucose 512.5 µM; UDP-glucose at fixed geraniol 1.25 mM; Tris-HCl pH 8.5, 30 °C
[12] = substrates at fixed UDP-glucose 833 µM, UDP-glucose at constant geraniol 1.25 mM, Tris-HCl pH 7.5, 30 °C
[13] = citronellol enantiomers, Figure 12, highest level of extractable radioactivity = 100 %
[14] = relative to conversion of geraniol (100 %), extractable radioactivity

T1 sequence (F6H0R6 entry or part of it): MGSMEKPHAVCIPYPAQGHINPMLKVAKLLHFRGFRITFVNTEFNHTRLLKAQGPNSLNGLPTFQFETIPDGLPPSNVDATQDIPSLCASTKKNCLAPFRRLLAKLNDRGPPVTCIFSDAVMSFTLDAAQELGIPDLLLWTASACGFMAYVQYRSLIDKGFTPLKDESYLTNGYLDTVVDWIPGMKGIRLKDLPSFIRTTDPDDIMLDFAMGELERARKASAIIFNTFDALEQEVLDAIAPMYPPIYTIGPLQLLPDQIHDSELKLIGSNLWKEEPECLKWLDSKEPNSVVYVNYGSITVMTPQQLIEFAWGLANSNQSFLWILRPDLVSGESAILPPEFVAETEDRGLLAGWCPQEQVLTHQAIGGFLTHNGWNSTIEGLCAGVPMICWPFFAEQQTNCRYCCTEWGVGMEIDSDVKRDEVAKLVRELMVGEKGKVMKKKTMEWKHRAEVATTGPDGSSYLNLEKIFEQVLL
T4 sequence (F6GUW0 entry or part of it): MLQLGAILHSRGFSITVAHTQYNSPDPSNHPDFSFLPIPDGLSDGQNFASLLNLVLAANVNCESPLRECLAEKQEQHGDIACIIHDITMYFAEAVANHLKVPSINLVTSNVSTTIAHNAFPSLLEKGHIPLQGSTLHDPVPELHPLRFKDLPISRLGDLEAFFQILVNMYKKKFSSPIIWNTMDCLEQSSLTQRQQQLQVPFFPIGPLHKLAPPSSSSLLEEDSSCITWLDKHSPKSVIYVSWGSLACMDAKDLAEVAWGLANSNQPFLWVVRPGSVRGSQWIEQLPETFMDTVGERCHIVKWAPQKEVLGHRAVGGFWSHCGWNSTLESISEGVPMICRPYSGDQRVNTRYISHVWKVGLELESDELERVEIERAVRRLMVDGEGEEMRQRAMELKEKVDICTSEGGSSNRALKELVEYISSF
T3 sequence (F6GUW0 entry or part of it): as above
T2 sequence (F6GUW0 entry or part of it): as above
T5 sequence (F6HTJ4 entry or part of it): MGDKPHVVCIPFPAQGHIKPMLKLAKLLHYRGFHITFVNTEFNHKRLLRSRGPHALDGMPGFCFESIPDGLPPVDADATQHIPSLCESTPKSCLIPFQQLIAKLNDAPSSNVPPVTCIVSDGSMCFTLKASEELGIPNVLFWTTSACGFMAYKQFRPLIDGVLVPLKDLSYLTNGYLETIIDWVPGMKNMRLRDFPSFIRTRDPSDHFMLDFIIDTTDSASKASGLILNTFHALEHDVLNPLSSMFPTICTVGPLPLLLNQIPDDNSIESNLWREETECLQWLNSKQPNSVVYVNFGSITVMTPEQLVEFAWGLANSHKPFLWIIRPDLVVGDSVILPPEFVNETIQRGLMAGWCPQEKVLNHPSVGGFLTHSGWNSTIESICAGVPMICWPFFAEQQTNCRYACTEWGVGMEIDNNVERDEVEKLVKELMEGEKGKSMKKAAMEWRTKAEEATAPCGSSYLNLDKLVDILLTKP

C=CC(C)(O)CCC=C(C)CO (centres unmarked) [8-hydroxylinalool]
conversion of putative substrate (in words) [1]: catalytic activity | conversion of putative substrate (in words) [2]: able to use | conversion of putative substrate (in words) [3]: able to use | Km [4]: 48 ± 2 µM | kcat [4]: 0.002 s⁻¹ | Km [5, 12]: 33 ± 1.8 µM | kcat [5, 12]: 0.003 s⁻¹ | kcat ([6]; pH 7.5): 0.004 s⁻¹ | Km [6, 12]: 17 ± 0.2 µM | Km [7, 12]: 32 ± 1.4 µM | kcat [7, 12]: 0.003 s⁻¹

CCCCCCO [hexanol]
relative specific activity [1]: > 80% | conversion of putative substrate (in words) [8]: glucosylated primarily | relative specific activity [9]: > 80% | conversion of putative substrate (in words) [2]: glucosylated primarily | conversion of putative substrate (in words) [3]: glucosylated primarily

O=c1c(O)c(-c2ccc(O)cc2)oc2cc(O)cc(O)c12 [kaempferol]
relative specific activity [1]: < 1%

CCC/C=C/CO [trans 2-hexenol]
conversion of putative substrate (in words) [1]: catalytic activity | conversion of putative substrate (in words) [9]: transformed | conversion of putative substrate (in words) [2]: able to use | conversion of putative substrate (in words) [3]: able to use

CC(C)=CCC[C@@H](C)CCO [R-citronellol, (R)-(+)-13-citronellol]
efficiency of transformation of R- and S-citronellol (in words) [9]: same efficiency

OCc1ccccc1 [benzyl alcohol]
conversion of putative substrate (in words) [1]: catalytic activity | relative specific activity [9]: > 80% and 100% | aglycone liberated by enzymatic hydrolysis of the glucosides formed from the grape skin aglycone library (in words) [10]: remarkable quantities

CC(C)=CCO [3-methyl-2-butenol]
conversion of putative substrate (in words) [1]: catalytic activity | conversion of putative substrate (in words) [9]: transformed

Oc1ccc(-c2[o+]c3cc(O)cc(O)c3cc2O)cc1 [pelargonodin]
relative specific activity [1]: < 1%

CC(C)=CCC[C@H](C)CCO [S-citronellol]
relative specific activity [8, 13]: 100% | efficiency of transformation of R- and S-citronellol (in words) [9]: same efficiency | relative specific activity [3, 13]: 100% | Km [5, 12]: 55 ± 1.3 µM | kcat [5, 12]: 0.03 s⁻¹ | Km [6, 12]: 20 ± 1.6 µM | kcat [6, 12]: 0.03 s⁻¹ | kcat ([7]; pH 7.5): 0.02 s⁻¹ | Km [7, 12]: 29 ± 3 µM

N#CC(O)c1ccccc1 (centres unmarked) [mandelonitrile]
conversion of putative substrate (in words) [1]: catalytic activity

C=C(C)CCO [3-methyl-3-butenol]
conversion of putative substrate (in words) [1]: catalytic activity

CC(C)=CCC/C(C)=C/CO [Geraniol, (E)-3,7-dimethyl-2,6-octadien-1-ol]
Km [11]: 355 ± 14 µM | kcat [11]: 0.015 s⁻¹ | relative specific activity [1]: 100% | conversion of putative substrate (in words) [1]: preferred | relative specific activity [8, 14]: 100% | conversion of putative substrate (in words) [8]: glucosylated primarily | relative specific activity [9]: > 80% | relative specific activity [2, 14]: 100% | conversion of putative substrate (in words) [2]: glucosylated primarily | relative specific activity [3, 14]: 100% | conversion of putative substrate (in words) [3]: glucosylated primarily | aglycone liberated by enzymatic hydrolysis of the glucosides formed from the grape skin aglycone library (in words) [10]: substantial amount | Km [4]: 9 ± 1.2 µM | kcat [4]: 0.02 s⁻¹ | Michaelis constant, fold greater than the KM values for nerol and S-citronellol [5]: about 2 fold | kcat ([5]; pH 7.5): 0.1 s⁻¹ and 0.10 s⁻¹ | Km [5, 12]: 81 µM | Michaelis constant, fold greater than the KM values for nerol and S-citronellol [6]: about 2 fold | kcat ([6]; pH 7.5): 0.17 s⁻¹ | Km [6, 12]: 43 µM | Michaelis constant, fold greater than the KM values for nerol and S-citronellol [7]: about 2 fold | kcat ([7]; pH 7.5): 0.12 s⁻¹ | Km [7, 12]: 63 µM

CC(C)=CCC/C(C)=C\CO [Nerol, (Z)-3,7-dimethyl-2,6-octadien-1-ol]
Km [11]: 118 ± 4.7 µM | kcat [11]: 0.009 s⁻¹ | relative specific activity [1]: > 80% | conversion of putative substrate (in words) [8]: glucosylated primarily | conversion of putative substrate (in words) [9]: transformed | conversion of putative substrate (in words) [2]: glucosylated primarily | conversion of putative substrate (in words) [3]: glucosylated primarily | aglycone liberated by enzymatic hydrolysis of the glucosides formed from the grape skin aglycone library (in words) [10]: remarkable quantities | Km [4]: 10 ± 0.7 µM | kcat [4]: 0.02 s⁻¹ | Km [5, 12]: 40 ± 3.7 µM | kcat [5, 12]: 0.03 s⁻¹ | kcat ([6]; pH 7.5): 0.06 s⁻¹ | Km [6, 12]: 28 ± 0.9 µM | kcat ([7]; pH 7.5): 0.04 s⁻¹ | Km [7, 12]: 48 ± 1.7 µM

C=CCc1ccc(O)c(OC)c1 [eugenol]
conversion of putative substrate (in words) [1]: catalytic activity

CC(C)=CCCC(C)=CCCC(C)=CCO [farnesol]
conversion of putative substrate (in words) [1]: catalytic activity | conversion of putative substrate (in words) [3]: low activity

CCCCCCCCO [octanol]
relative specific activity [1]: > 80% | conversion of putative substrate (in words) [8]: glucosylated primarily | conversion of putative substrate (in words) [2]: glucosylated primarily | conversion of putative substrate (in words) [3]: glucosylated primarily

Oc1cc(O)c2cc(O)c(-c3ccc(O)c(O)c3)[o+]c2c1 [cyanidin]
relative specific activity [1]: < 1%

CC/C=C\CCO [cis 3-hexenol]
conversion of putative substrate (in words) [1]: catalytic activity | conversion of putative substrate (in words) [9]: transformed

O=c1c(O)c(-c2ccc(O)c(O)c2)oc2cc(O)cc(O)c12 [quercetin]
relative specific activity [1]: < 1%
